# Experimental data as given in patent US20240252581A1, “COMPOSITIONS AND METHODS FOR TREATING RESPIRATORY DISTRESS” (S.I.S. SHULOV INNOVATIVE SCIENCE LTD., priority 2021, published 2024).
# Several values for one entry are separate records, joined by “and”; a condition that tells them apart may be missing. Identical values can stand only once. Square brackets hold non-standard residues; d marks the D form. Peptide text beside a SMILES is read from it. * marks the point of attachment. pGlu = O=C1CC[C@@H](C(=O)O)N1; Octanoyl = CCCCCCCC(=O)*
# Test system: B cells, T cells, eosinophils, neutrophils, macrophages/dendritic cells in BALF
# Experiment: LPS-induced acute lung injury / ARDS mouse model: BALF differential cell count by FACS
# Type: in vivo, BALB/c mice
# Parameters: key to Macrophages / B cells / T cells / Eosinophils / Neutrophils: (+) indicates activation; (−) indicates inhibition
# Conditions: for Macrophages & dendritic cells (%) / Neutrophils (%) / T cells (%) / B cells (%) / Eosinophils (%) / Eosinophils / Macrophages / B cells / Neutrophils / T cells: BALF
# Method: In order to test the efficacy of ZEP3 sodium on lung inflammation, the lipopolysaccharide (LPS)-induced acute lung injury model was used. In particular, LPS was administered intratracheally at doses of 10 or 40 mg/kg body weight (BW) corresponding to 0.2 or 0.8 mg/mouse, respectively.
# ZEP3 sodium was administered by inhalation (INH) at doses of 25 or 250 mg/kg BW (0.5 or 5 mg/mouse, respectively), or intratracheally (IT) at doses of 5 or 20 mg/kg BW (0.1 or 0.4 mg/mouse, respectively) 6 hours after LPS administration and its effect was measured 72 hours following administration in the branchial alveolar fluid (BALF) using FACS instrumentation. […]
# [1] = Group 3: ZEP3Na 0.4 mg IT, no LPS, group mean
# [2] = Group 3: ZEP3Na 0.4 mg IT, no LPS, individual mice
# [3] = Group 4: LPS 0.8 mg + ZEP3Na 0.1 mg IT, group mean
# [4] = Group 4: LPS 0.8 mg + ZEP3Na 0.1 mg IT, individual mice
# [5] = Group 5: LPS 0.8 mg + ZEP3Na 0.4 mg IT, group mean
# [6] = Group 5: LPS 0.8 mg + ZEP3Na 0.4 mg IT, individual mice
# [7] = Group 8: LPS 0.2 mg + ZEP3Na 0.1 mg IT, group mean
# [8] = Group 8: LPS 0.2 mg + ZEP3Na 0.1 mg IT, individual mice
# [9] = Group 9: LPS 0.2 mg + ZEP3Na 0.4 mg IT, group mean
# [10] = Group 9: LPS 0.2 mg + ZEP3Na 0.4 mg IT, individual mice
# [11] = LPS 0.2 mg + ZEP3Na (IT) 0.1 mg
# [12] = LPS 0.2 mg + ZEP3Na (IT) 0.4 mg
# [13] = LPS 0.8 mg + ZEP3Na (INH) 0.5 mg
# [14] = administered by inhalation following LPS instillation
# [15] = administered intratracheally following LPS instillation
smiles,measurement,setting,value
"CCCCCCCC(=O)NCCCC[C@H](NC(=O)[C@H](Cc1c[nH]c2ccccc12)NC(=O)[C@H](CC(N)=O)NC(=O)[C@@H]1CCC(=O)N1)C(=O)O [ZEP3Na, pGlu-Asn-Trp-Lys(Octanoyl)-ONa] ([pGlu]NWK(Octanoyl)-OH)",Macrophages & dendritic cells (%),[1],72.219%
same,Neutrophils (%),[1],4.248%
same,T cells (%),[1],1.983%
same,B cells (%),[2],0.310% and 0.225% and 0.162% and 0.154% and 0.106% and 0.100% and 0.160% and 0.223% and 0.144%
same,Eosinophils (%),[2],0.151% and 0.400% and 0.136% and 0.176% and 0.138% and 0.390% and 0.192% and 0.540% and 0.366%
same,Macrophages & dendritic cells (%),[2],72.760% and 67.646% and 73.862% and 72.372% and 77.634% and 73.286% and 72.368% and 67.355% and 72.688%
same,Neutrophils (%),[2],3.325% and 7.965% and 2.600% and 3.496% and 2.405% and 3.740% and 3.111% and 7.438% and 4.152%
same,T cells (%),[2],2.519% and 3.322% and 1.247% and 1.675% and 1.513% and 1.348% and 1.817% and 2.755% and 1.654%
same,B cells (%),[3],0.164%
same,Eosinophils (%),[3],0.833%
same,Macrophages & dendritic cells (%),[3],20.180%
same,Neutrophils (%),[3],59.048%
same,T cells (%),[3],2.194%
same,B cells (%),[4],0.118% and 0.102% and 0.048% and 0.030% and 0.045% and 0.489% and 0.052% and 0.572% and 0.017%
same,Eosinophils (%),[4],0.170% and 0.064% and 1.024% and 0.755% and 0.646% and 3.005% and 0.568% and 0.840% and 0.425%
same,Macrophages & dendritic cells (%),[4],71.986% and 72.475% and 1.316% and 0.956% and 1.424% and 16.916% and 1.107% and 14.732% and 0.713%
same,Neutrophils (%),[4],6.007% and 2.454% and 77.259% and 86.115% and 82.630% and 57.391% and 82.523% and 54.903% and 82.147%
same,T cells (%),[4],0.991% and 1.527% and 0.804% and 0.573% and 0.865% and 5.340% and 0.937% and 8.033% and 0.675%
same,B cells (%),[5],0.054%
same,Eosinophils (%),[5],0.475%
same,Macrophages & dendritic cells (%),[5],12.756%
same,Neutrophils (%),[5],67.517%
same,T cells (%),[5],0.895%
same,B cells (%),[6],0.014% and 0.011% and 0.028% and 0.024% and 0.167% and 0.138% and 0.026% and 0.022%
same,Eosinophils (%),[6],0.303% and 0.448% and 0.323% and 0.298% and 1.427% and 0.195% and 0.530% and 0.280%
same,Macrophages & dendritic cells (%),[6],0.470% and 0.297% and 0.271% and 0.442% and 30.597% and 68.407% and 0.798% and 0.764%
same,Neutrophils (%),[6],77.586% and 88.700% and 84.629% and 80.400% and 39.818% and 3.154% and 84.929% and 80.922%
same,T cells (%),[6],0.383% and 0.495% and 0.512% and 0.577% and 1.800% and 2.098% and 0.609% and 0.685%
same,B cells (%),[7],0.097%
same,Eosinophils (%),[7],0.210%
same,Macrophages & dendritic cells (%),[7],2.327%
same,Neutrophils (%),[7],79.428%
same,T cells (%),[7],1.662%
same,B cells (%),[8],0.040% and 0.064% and 0.259% and 0.230% and 0.080% and 0.054% and 0.069% and 0.053% and 0.045% and 0.075%
same,Eosinophils (%),[8],0.247% and 0.204% and 0.223% and 0.251% and 0.143% and 0.176% and 0.180% and 0.265% and 0.225% and 0.192%
same,Macrophages & dendritic cells (%),[8],2.218% and 1.674% and 5.674% and 2.257% and 0.618% and 1.800% and 1.175% and 5.084% and 1.252% and 1.516%
same,Neutrophils (%),[8],84.112% and 84.283% and 69.683% and 74.854% and 81.436% and 79.270% and 71.074% and 80.725% and 85.962% and 82.883%
same,T cells (%),[8],0.940% and 0.742% and 5.066% and 3.187% and 1.024% and 1.045% and 1.327% and 0.892% and 1.131% and 1.271%
same,B cells (%),[9],0.092%
same,Eosinophils (%),[9],0.270%
same,Macrophages & dendritic cells (%),[9],24.471%
same,Neutrophils (%),[9],55.279%
same,T cells (%),[9],1.175%
same,B cells (%),[10],0.045% and 0.054% and 0.029% and 0.019% and 0.100% and 0.153% and 0.286% and 0.103% and 0.037%
same,Eosinophils (%),[10],0.243% and 0.159% and 0.151% and 0.192% and 0.238% and 0.345% and 0.577% and 0.237% and 0.288%
same,Macrophages & dendritic cells (%),[10],4.399% and 1.327% and 0.529% and 0.437% and 1.661% and 60.592% and 75.765% and 73.903% and 1.626%
same,Neutrophils (%),[10],77.353% and 85.551% and 87.483% and 77.212% and 72.881% and 9.005% and 3.108% and 3.716% and 81.207%
same,T cells (%),[10],1.035% and 0.833% and 0.582% and 0.685% and 1.665% and 2.779% and 0.977% and 1.174% and 0.843%
same,Eosinophils,[11],−
same,Macrophages,[11],+
same,Eosinophils,[12],−
same,Macrophages,[12],+
same,B cells,[13],+
same,Eosinophils,[13],−
same,Macrophages,[13],+
same,Neutrophils,[13],−
same,T cells,[13],−
same,B cells,LPS 0.8 mg + ZEP3Na (INH) 5 mg,+
same,Eosinophils,LPS 0.8 mg + ZEP3Na (INH) 5 mg,−
same,Macrophages,LPS 0.8 mg + ZEP3Na (INH) 5 mg,+
same,Neutrophils,LPS 0.8 mg + ZEP3Na (INH) 5 mg,−
same,T cells,LPS 0.8 mg + ZEP3Na (INH) 5 mg,−
same,"levels of T cells, eosinophils, neutrophils",[14],significantly inhibited the expression and reduced the levels
same,levels of macrophages and B cells,[14],increased the levels
same,levels of eosinophils,[15],significantly inhibited the expression and reduced the levels
same,levels of macrophages,[15],increased the levels
